Measurements: publication PMC11509018, “Evaluation of the Role of Tanshinone I in an In Vitro System of Charcot-Marie-Tooth Disease Type 2N” (International Journal of Molecular Sciences, 2024)

Molecular target: T1, AlaRS R326W binding to Nrp1 (Homo sapiens, UniProt P49588, R326W)
T1 construct: expressed in transfected cells
T1 sequence (P49588 1-968 R326W): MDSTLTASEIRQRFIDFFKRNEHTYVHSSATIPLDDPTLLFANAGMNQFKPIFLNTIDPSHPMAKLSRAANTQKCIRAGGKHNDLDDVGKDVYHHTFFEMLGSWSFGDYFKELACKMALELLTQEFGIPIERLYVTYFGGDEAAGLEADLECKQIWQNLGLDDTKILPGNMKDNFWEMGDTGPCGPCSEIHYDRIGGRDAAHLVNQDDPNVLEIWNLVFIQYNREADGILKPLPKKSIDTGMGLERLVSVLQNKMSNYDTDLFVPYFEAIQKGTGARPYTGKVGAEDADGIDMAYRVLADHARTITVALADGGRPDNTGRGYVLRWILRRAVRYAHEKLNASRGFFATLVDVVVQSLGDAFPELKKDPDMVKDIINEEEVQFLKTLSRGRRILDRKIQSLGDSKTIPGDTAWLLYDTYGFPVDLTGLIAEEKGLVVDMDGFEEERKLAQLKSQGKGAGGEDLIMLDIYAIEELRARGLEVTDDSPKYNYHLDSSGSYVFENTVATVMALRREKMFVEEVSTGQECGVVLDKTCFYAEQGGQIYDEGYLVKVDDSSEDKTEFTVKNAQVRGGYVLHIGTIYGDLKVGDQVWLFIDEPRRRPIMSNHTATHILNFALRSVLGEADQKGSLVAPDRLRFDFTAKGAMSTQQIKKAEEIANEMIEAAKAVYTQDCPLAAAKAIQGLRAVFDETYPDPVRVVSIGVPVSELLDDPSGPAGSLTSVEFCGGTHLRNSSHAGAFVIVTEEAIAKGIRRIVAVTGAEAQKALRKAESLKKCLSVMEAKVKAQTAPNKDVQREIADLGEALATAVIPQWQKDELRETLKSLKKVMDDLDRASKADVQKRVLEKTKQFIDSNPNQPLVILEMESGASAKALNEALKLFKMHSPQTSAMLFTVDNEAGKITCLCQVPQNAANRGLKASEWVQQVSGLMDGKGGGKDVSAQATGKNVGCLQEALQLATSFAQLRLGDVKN
Test: Co-IP of HA-AlaRS mutant with Nrp1 in transfected cells
Assay type: cell-based
Settings: 20 µM Tanshinone I for 24 h, ImageJ, average of three repeats
Description: To further investigate whether Tanshinone I-induced conformational changes in AlaRS CMT mutants affect their interaction with Nrp1, Co-IP experiments were performed in cells treated with Tanshinone I. By comparing Co-IP results obtained before and after treatment, we assessed the influence of the drug on the binding strength and mode between the AlaRS CMT mutants and Nrp1. […] To confirm the direct effect of Tanshinone I on the interaction between AlaRS CMT mutants and Nrp1, pull-down experiments were performed. […] Given that the interaction between AlaRS mutants and Nrp1 is associated with disease progression in CMT, the ability of Tanshinone I to disrupt this binding highlights its potential to intervene in the pathogenic mechanisms of these diseases.
Figure 7 The impact of Tanshinone I on the interaction between AlaRS mutants and Nrp1. (A) Co-IP assays were conducted to assess the binding between HA-AlaRS mutants and Nrp1, both with and without treatment with 20 µM Tanshinone I for 24 h. […] (C) Pull down assay was performed to detect the binding between AlaRS mutants and GST-Nrp1 b1 with or without 20 µM Tanshinone I. (D) Relative quantification statistics of the AlaRS mutants pulled down from the GST pull down experiments after Tanshinone I treatment were performed using ImageJ. (E) The cell viability of 293T and NSC34 cells treated with different concentrations of Tanshinone I was assessed using the CCK-8 assay over a 24 h period. TEXT PRINTED IN THE PICTURE: (B) Tanshinone I: Mean density band (N71Y): 0.60; Mean density band (G102R): 0.53; Mean density band (R326W): 0.50; Mean density band (R329H): 0.50; Mean density band (E337K): 0.62 | (D) Tanshinone I: Mean density band (N71Y): 0.82; Mean density band (G102R): 0.76; Mean density band (R326W): 0.84; Mean density band (R329H): 0.84; Mean density band (E337K): 0.90
Total protein was extracted from cells using RIPA buffer (50 mM Tris-HCl pH 7.4, 150 mM NaCl, 1% NP40, 1 mM EDTA) supplemented with a protease and phosphatase inhibitor cocktail (Roche, Basel, Switzerland). After SDS-PAGE, the protein on the gel was transferred to a PVDF membrane (Bio-Rad, Hercules, CA, USA) and then blocked with 5% non-fat dry milk in TBST for 1 h. Then, the membranes were incubated with the indicated primary antibodies and corresponding HRP-conjugated secondary antibodies. Signals were detected using the Bio-Rad ChemiDoc system (Bio-Rad, Shanghai, China). The following antibodies were used: Flag (Ray antibody biotech, Beijing, China, 1:3000), HA (Ray antibody biotech, Beijing, China, 1:3000), and GAPDH (Ray antibody biotech, Beijing, China, 1:5000).
To detect the binding of Nrp1 and AlaRS mutants in cells, whole-cell lysates (500 μg) were treated overnight with 2 μg of anti-Flag antibody in RIPA buffer. Next, Protein A/G agarose beads (#sc-2003, Santa Cruz Biotechnology, Santa Cruz, CA, USA) were applied to the lysates and the samples were further treated for 8–12 h with rotation. Samples were washed three times with RIPA buffer. Subsequently, the immunoprecipitations were resuspended into 2 × SDS-loading buffer. The samples were then boiled for 10 min and detected using Western blot. The experiment was repeated three times.

Mean density band (R326W), relative quantification of AlaRS mutant immunoprecipitated: 0.50
Compound: Cc1coc2c1C(=O)C(=O)c1c-2ccc2c(C)cccc12 [Tanshinone I]
